Laboratory results as given in publication PMC8159111 (Pathogens, 2021).

What was measured:
Assay type in all cases: cell-based
[1] = test system: MERS-CoV virus "NRCE-HKU270"; test: microbe, parasite or virus in culture; conditions: Middle East respiratory syndrome-related coronavirus, Vero C1008, read-out: IC50 (half-maximal inhibitory concentration)
[2] = test system: NRC-03-nhCoV (SARS-CoV-2) in Vero-E6 cells; test: Mode of antiviral action, plaque infectivity reduction assay (adsorption, replication, virucidal)
Experimental: To investigate whether the tested compound with high selectivity index and antiviral activity against NRC-03-nhCoV affect (a) viral adsorption, (b) viral replication or (c) viricidal effect, a plaque infectivity reduction assay was performed according to the following protocols: • (a) Viral adsorption mechanism
The viral adsorption mechanism was assayed according to a protocol by Zhang et al. with minor modifications. Vero-E6 cells were cultivated in a 6-well plate (10^5 cells/mL) for 24 h at 37 °C. Each tested drug was applied in 500 µL of medium without supplements and co-incubated with the cells for 2 h at 4 °C. The non-absorbed drug in the applied inocula was removed by washing cells three times with 1x PBS. The NRC-03-nhCoV was diluted to a countable range “10^−4” and co-incubated with the pretreated cells. About 1 h post-incubation, the inocula were removed and 3 mL of agarose overlay (1:1 mixture of warmed 2× plaque media and a stock solution of heated 2% agarose) were added. The plates were kept at room temperature to solidify and then incubated at 37 °C to allow the formation of viral plaques. The plaques were fixed using 10% formaldehyde, stained using crystal violet (1% crystal violet in 20% ethanol and distilled H2O), washed with rinse water and dried to calculate the percentage reduction in plaque formation compared to control wells, which comprised untreated Vero-E6 cells directly infected with NRC-03-nhCoV.
The impact of the tested drug on viral replication was determined as previously described. Vero-E6 cells were cultivated in a 6-well plate (10^5 cell/mL) for 24 h at 37 °C. The NRC-03-nhCoV of the countable range was inoculated directly to the cells and incubated for 1 h at 37 °C. The inocula containing the non-adsorbed virus were removed by washing infected cell monolayers three times with 1× PBS. The analyzed compound was then applied in varying concentrations to infected cells for another 1 h contact time at 37 °C. After removing the inocula containing the tested drug, agarose overlay were added to the cells. […]

[3] = test system: SARS-CoV-2 "NRC-03-nhCoV" virus; test: Inhibitory concentration 50 (IC50) determination, reduction of virus-induced cytopathic effect in Vero-E6 cells; conditions: Severe acute respiratory syndrome coronavirus 2, Vero C1008, 72 h, against NRC-03-nhCoV in Vero E6, 72 h, CPE reduction, crystal violet; unit not given in Table 4 and Figure 6, Figure 4 and text print μM; read-out: IC50 (half-maximal inhibitory concentration)
Experimental: The IC50 values for the tested compounds were determined as previously described, with minor modifications. Briefly, in 96-well tissue culture plates, 2.4 × 10^4 Vero-E6 cells were distributed in each well and incubated overnight at a humidified 37°C incubator under 5% CO2 condition. The cell monolayers were then washed once with 1× PBS. An aliquot of the SARS-CoV-2 “NRC-03-nhCoV” virus containing 100 TCID50 was incubated with serial diluted compounds and kept at 37 °C for 1 h. The Vero-E6 cells were treated with virus/compound mix and co-incubated at 37 °C in a total volume of 200 µL per well. Untreated cells infected with virus represented the virus control; however, cells that were not treated and not infected were the cell control. Following incubation at 37 °C in 5% CO2 incubator for 72 h, the cells were fixed with 100 μL of 10% paraformaldehyde for 20 min and stained with 0.5% crystal violet in distilled water for 15 min at RT. The crystal violet dye was then dissolved using 100 μL of absolute methanol per well and the optical density of the color was measured at 570 nm using the Anthos Zenyth 200 rt plate reader (Anthos Labtec Instruments, Heerhugowaard, the Netherlands).

[4] = Cytotoxicity (CC50) determination, crystal violet assay; conditions: African green monkey, Vero E6 cells, Table 4 prints no unit, Figure 4 prints μM, read-out: CC50 (half-maximal cytotoxic concentration)
Experimental: To assess the half maximal cytotoxic concentration (CC50), stock solutions of the test compounds were prepared in 10% DMSO in ddH2O and diluted further to the working solutions with DMEM. The cytotoxic activity of the extracts was tested in VERO-E6 cells by using crystal violet assay as previously described with minor modifications. Briefly, the cells were seeded in 96-well plates (100 µL/well at a density of 3 × 10^5 cells/mL) and incubated for 24 h at 37 °C in a humidified 5% CO2 incubator. After 24 h, cells were treated with various concentrations of the tested compounds in triplicates. Seventy two hours later, the supernatant was discarded, and cell monolayers were fixed with 10% formaldehyde for 1 h at room temperature (RT). The fixed monolayers were then dried and stained with 50 µL of 0.1% crystal violet for 20 min on a bench rocker at RT. The monolayers were then washed, dried and the crystal violet dye in each well was then dissolved with 200 µL of methanol for 20 min on a bench rocker at RT. The absorbance of crystal violet solutions was measured at λmax 570 nm as a reference wavelength using a multi-well plate reader.

Structure (SMILES): CC1(C)CCC2(C(=O)OCc3cc(-c4ccc(Cl)cc4)no3)CCC3(C)C(=CCC4C5(C)CC(O)C(O)C(C)(C)C5CCC43C)C2C1 (stereo not drawn) [Compound 17, (3-(4-chlorophenyl)isoxazol-5-yl) methyl-(2α,3β)-2,3-dihydroxyolean-12-en-28-oate]
- IC50 [1]: 6.25 µM
- effect on viral adsorption ([2]; Vero-E6 cells pretreated with compound 2 h at 4 °C): efficiently impair viral replication and adsorption
- effect on viral replication ([2]; compound applied to infected Vero-E6 cells after adsorption): efficiently impair viral replication
- virucidal effect ([2]; virus mixed with compound 1 h before infection of Vero-E6): virucidal effect
- IC50 [3]: 4.12 µM
- CC50 at 72 h [4]: 142 µM
